The test system of one test is B. subtilis (W168). Put plainly: MIC, broth microdilution (CLSI). The class given is cell-based. Conditions: Bacillus subtilis. The protocol:
(§1) B. subtilis, staphylococcal, and enterococcal strains were grown in Mueller Hinton broth (MHB), while streptococcal strains were grown in MHB supplemented with 5% laked horse blood. All strains were grown for 18 h at 37 °C. The overnight cultures were subsequently subcultured 1:200 and grown to the exponential phase (OD600nm = 0.5–0.6) in fresh broth. 1771 and its derivatives 9–14 were reconstituted in DMSO and further diluted by performing a 1:2 serial dilution ranging between 256 and 0.125 μg/mL in a 96-well microtiter plate. One hundred microliters of 0.5 McFarland standardized inoculum (approximately equal to 5 × 10^5 cfu) were then dispensed into each well in the 96-well microtiter plate. The plate was incubated for 18 h at 37 °C.
For orientation: In broth dilution the organism is exposed to a series of concentrations in liquid medium.

The test system of a further test is S. agalactiae. Briefly: MIC, broth microdilution (CLSI). The class given is cell-based. Conditions: Streptococcus agalactiae. As to the method: (§2) S. aureus, S. epidermidis, E. faecalis, and E. faecium strains were routinely cultivated on tryptic soy agar (TSA) and grown for 18 h at 37 °C. S. aureus single colonies were subsequently transferred into 2 mL of tryptic soy broth (TSB) and grown for a further 18 h at 37 °C while being shaken at 180 rpm. S. pyogenes, S. agalactiae, and S. dysgalactiae strains were routinely cultured on TSA supplemented with 5% sheep blood and grown for 18 h at 37 °C with 5% CO2. E. coli was grown in LB broth at 37 °C. For LtaS-deficient strains, TSB was supplemented with 0.5 M NaCl to provide an osmotically balanced environment and instead grown at 30 °C. For strains harboring the pRMC2 tetracycline inducible vector,[61] the growth medium was supplemented with 10 μg/mL chloramphenicol and […] anhydrotetracycline hydrochloride (Sigma). Phenylalanine-arginine β-naphthylamide (PAβN) (Sigma) was dissolved in sterile water.
as §1

In test [1] the test system is S. aureus wild type, clpX, ltaS, tarO mutants and ltaS overexpression strains. Briefly: MIC against LtaS deletion and overexpression strains. The class given is cell-based, Staphylococcus aureus. As to the method:
as §2, §1
For overexpression studies, full-length ltaS was amplified by PCR using MRSA strian LAC genomic DNA, primer pair LtaS-FW: 5′-[…]-3′ and LtaS-RV: 5′-[…]-3′, and Phusion High-Fidelity DNA Polymerase (Thermo Fisher). The resulting PCR product was cloned into the tetracycline inducible plasmid pRMC2 using SacI and KpnI restriction sites and T4 ligase (NEB). The cloned vector was subsequently transformed into RN4220 followed by LAC through electroporation.

Test [2] relates to HepG2 human liver cancer cells. Briefly: HepG2 liver cell toxicity assay (MTT). The class given is cell-based. The following applies: for IC50: Homo sapiens, 24 h incubation, MTT, concentration responsible for 50% HepG2 cell death. The protocol:
HepG2 human liver cancer cells (ECACC: Cat no. 85011430) were grown in Dulbecco’s Modified Eagle’s Medium (DMEM; with 4.5 g/L glucose) supplemented with 10% (v/v) fetal bovine serum, 1% (v/v) minimal essential media, and 0.2% (v/v) penicillin/streptomycin/L-glutamine solution. Cells were then seeded at a concentration of 10,000 cells per well and allowed to attach and grow for 18 h. Following this, the medium was aspirated away and replaced with a medium containing a range of concentrations of 1771 and compound 13, and the cells were grown for a further 24 h. After this, cell viability was assessed using the MTT (3-[4,5-dimethylthiazol-2-yl]-2,5-diphenyltetrazolium bromide) assay. 1771 or 13 containing growth media was aspirated away and replaced with 100 μL of 1 mg/mL MTT (in growth media) and incubated for 50 min at 37 °C. Subsequently, this solution was removed, and 150 μL of isopropanol was added to the cells and allowed to incubate at RT with gentle rocking on an orbital shaker. Absorbance at abs595nm was recorded using a Sunrise plate reader, and the % cell viability was calculated compared to a no-compound control.

The next test deals with LTA. Put plainly: LTA quantification by Western blot. The class given is cell-based, Staphylococcus aureus. The following applies: strain LAC, 1× and 4× the MIC. The protocol:
Overnight cultures of S. aureus strains were diluted 1:200 in fresh TSB and grown to an optical density of OD600nm 0.3. […] Vancomycin and daptomycin at 1× and 4× MIC were also included as control antibiotics. Cells were then normalized to have 10 mL of OD600nm 0.6, pelleted at 4000 rpm, and resuspended in 300 μL of PBS containing 200 μg/mL lysostaphin. This suspension was then incubated at 37 °C for 45 min to allow digestion of the cell wall to occur. One hundred microlitres of 4× SDS sample buffer were then added, and the mixture was boiled at 95 °C for 20 min. The insoluble material was then removed by pelleting at 16,000 rpm for 10 min. The supernatant containing LTA was then subjected to SDS-PAGE on a 4–20% Tris-glycine gel (Bio-Rad). The gel was transferred onto a PVDF membrane using a Trans-Blot Turbo Transfer System (Bio-Rad). The membrane was blocked overnight in TBST containing 5% semi-skimmed milk before being incubated with a mouse anti-LTA antibody (Hycult; HM2048; 1:2000 dilution) followed by a goat antimouse-HRP secondary antibody (Proteintech; SA00001; 1:2000 dilution) before being visualized using an Amersham-ECL kit (Cytiva).
A general note: A western blot detects proteins with antibodies after separation by electrophoresis.

For another test, the system named is E. coli strain K12. Briefly: Growth inhibition in combination with PAβN. The class given is cell-based, Escherichia coli. The following applies: for concentration at which growth was completely inhibited: E. coli K12, 50 μg/mL PAβN; for MIC: Escherichia coli, E. coli K12, 100 μg/mL PAβN. The protocol:
Phenylalanine-arginine β-naphthylamide (PAβN) is a well-studied efflux pump inhibitor, which can also permeabilize the outer membrane of Gram-negative organisms.[40] […] Without the addition of PAβN (0 μg/mL), neither 1771 nor 13 had any growth inhibitory activity at concentrations up to 64 μg/mL. With the addition of 25 μg/mL of PAβN, the E. coli strain K12 could still grow in the presence of 64 μg/mL of 1771 or 13; however, the growth rate was severely impacted in a dose-dependent manner. […] To further evaluate the Gram-negative coverage of 1771 and 13, we also tested 1771 or 13 in combination with PAβN against Pseudomonas aeruginosa strain PAO1, Klebsiella pneumoniae strain 699 (clinical isolate), and Acinetobacter baumannii strain DF1000 (clinical isolate) (Figure S6a–c).
Figure 8 Permeabilization of the outer membrane renders E. coli susceptible to 1771 and 13. Bacterial growth curves of (a) 1771 and (b) 13 (0–64 μg/mL) in combination with 0, 25, 50, and 100 μg/mL of PAβN. The bacterial growth (OD600nm) was plotted against time following 18 h of growth at 37 °C. The icons represent the mean of three biological replicates.

Where [3] appears, read: Staphylococcus aureus, 8325-4 (wild type), clpX set.
[4] abbreviates: Staphylococcus aureus, NEWMAN, Newman ΔtarO.
Where [5] appears, read: Staphylococcus aureus, NEWMAN, Newman ΔtarO pRMC2 (empty vector).
[6] abbreviates: Staphylococcus aureus, NEWMAN, Newman ΔtarO pltaS (ltaS overexpression).
The mark [7] stands for this setting: Staphylococcus aureus, SA564 (wild type).
Setting [8] is: Staphylococcus aureus, SA564 clpX knockout mutant.
Setting [9] is: E. coli K12, 25 μg/mL PAβN, growth rate severely impacted dose-dependently.
[10] abbreviates: E. coli K12, without PAβN (0 μg/mL), 18 h.

For orientation: MIC means the smallest concentration in the dilution series that meets the test's criterion for growth inhibition. As usually defined, the IC50 is the midpoint of a concentration-inhibition curve. Read a high IC50 as a need for much substance.

Each structure is given as a SMILES string. In brackets after ≈: the same amount, converted by molar mass.

On to `O=C(COC(=O)Cc1coc2ccc3ccccc3c12)Nc1nnc(-c2ccc(S(F)(F)(F)(F)F)cc2)o1` [Compound 13, 2-Oxo-2-((5-(4-(pentafluoro-l6-sulfaneyl)phenyl)-1,3,4-oxadiazol-2-yl)amino)ethyl 2-(Naphtho[2,1-b]furan-1-yl)acetate], for which the MIC was 0.5 to 1 µg/mL (≈ 0.903 to 1.81 µM) in the test with B. subtilis (W168); 64 µg/mL (≈ 116 µM) in the test on S. agalactiae (S. agalactiae (18R521)); 128 µg/mL (≈ 231 µM) with S. agalactiae (S. agalactiae (COH1)); 0.5 to 1 µg/mL in test [1] (8325-4 (wild type), clpX set); 0.25 µg/mL (≈ 0.452 µM) in test [1] (SA564clpX knockout and ltaSH476Q mutant); 0.5 to 1 µg/mL (≈ 0.903 to 1.81 µM) in test [1] (setting [3]). The minimum inhibitory concentration (MIC) in test [1] (Staphylococcus aureus, 8325-4 clpX knockout and ltaS382STOP mutant) worked out at 0.25 µg/mL (≈ 0.452 µM); in test [1] (Staphylococcus aureus, 8325-4 clpX knockout mutant) it was 0.25 µg/mL (≈ 0.452 µM); in test [1] (Staphylococcus aureus, JE2 clpXI265E mutant) it was 0.25 µg/mL (≈ 0.452 µM); in test [1] (Staphylococcus aureus, NEWMAN) it was 1 µg/mL (≈ 1.81 µM); in test [1] (setting [4]), 1 µg/mL (≈ 1.81 µM); in test [1] (setting [5]) it was 1 µg/mL (≈ 1.81 µM). Further, the MIC in test [1] (setting [6]) is 1 µg/mL (≈ 1.81 µM); in test [1] (setting [7]), 0.25 µg/mL (≈ 0.452 µM); in test [1] (setting [8]), 0.25 µg/mL (≈ 0.452 µM); in the test on E. coli strain K12, 1 µg/mL. Half-maximal inhibition in test [2] (IC50) required 27.3 µg/mL (≈ 49.3 µM). Also, in the test on LTA, the “LTA signal by Western blot” value is “reduction in LTA abundance”. Besides, the growth inhibitory concentration in the test with E. coli strain K12 (setting [9]) and with E. coli strain K12 (setting [10]) was more than 64 µg/mL in each case. For the same molecule, the “concentration at which growth was completely inhibited” value in the test with E. coli strain K12 was 64 µg/mL.
On to `O=C(COC(=O)Cc1coc2ccc3ccccc3c12)Nc1nnc(-c2ccccc2)o1` [Compound 1771, 2-Oxo-2-((5-phenyl-1,3,4-oxadiazol-2-yl)amino)ethyl 2-(Naphtho[2,1-b]furan-1-yl)acetate, reference compound], for which the MIC in the test on B. subtilis (W168) was 4 to 8 µg/mL (≈ 9.36 to 18.7 µM); with S. agalactiae (S. agalactiae (18R521)), 128 µg/mL (≈ 299 µM); in the test with S. agalactiae (S. agalactiae (COH1)), more than 128 µg/mL; in test [1] (setting [3]), 16 µg/mL (≈ 37.4 µM); in test [1] (Staphylococcus aureus, JE2 (wild type)) it was 16 µg/mL (≈ 37.4 µM); in test [1] (Staphylococcus aureus, JE2 clpXI265E and ltaS339STOP mutant), 16 µg/mL (≈ 37.4 µM). Also, the MIC came to 16 µg/mL (≈ 37.4 µM) in test [1] (Staphylococcus aureus, NEWMAN); 16 µg/mL (≈ 37.4 µM) in test [1] (setting [4]); 16 µg/mL (≈ 37.4 µM) in test [1] (setting [5]); 16 µg/mL (≈ 37.4 µM) in test [1] (setting [6]); 16 µg/mL (≈ 37.4 µM) in test [1] (setting [7]); 16 µg/mL (≈ 37.4 µM) in test [1] (Staphylococcus aureus, SA564clpX knockout and ltaSH476Q mutant). For the same molecule, the MIC is 16 µg/mL (≈ 37.4 µM) in test [1] (setting [8]) and 4 µg/mL in the test with E. coli strain K12. Besides, the “selectivity index (IC50/MIC50)” value in test [2] (HepG2 IC50 / S. aureus MIC50) stood at 3.08. In test [2], the IC50 came out at 24.7 µg/mL (≈ 57.8 µM). Moreover, the “LTA signal by Western blot” value with LTA was “reduction in LTA abundance”. In addition, the growth inhibitory concentration with E. coli strain K12 (setting [9]) and with E. coli strain K12 (setting [10]) was more than 64 µg/mL in each case. Moreover, the “concentration at which growth was completely inhibited” value with E. coli strain K12 worked out at 64 µg/mL.

The record behind these values is PMC10644342, “Improved Antibacterial Activity of 1,3,4-Oxadiazole-Based Compounds That Restrict Staphylococcus aureus Growth Independent of LtaS Function” (ACS Infectious Diseases, 2023).
